Bounds are passed on as bounds.

One test concerns parental untransformed BaF3 cells. Nature of the test: Tritiated thymidine uptake cell proliferation assay, parental BaF3. As to conditions: 3H-thymidine uptake, 72 h, medium with IL-3. The format is cell-based.
For the compound “62:38 mixture of (E)-6-(4-(4-methylpiperazin-1-yl)phenyl)-4-(1-phenylbut-1-en-2-yl)-9H-pyrido[2,3-b]indole and (E)-6-(4-(4-methylpiperazin-1-yl)phenyl)-4-(1-phenylbut-1-en-1-yl)-9H-pyrido[2,3-b]indole [Example 31]”, the half-maximal inhibitory concentration (IC50) was determined as 930 nM.

Staying with this test, now noted: Mus musculus, BaF3; 3H-thymidine uptake, 72 h, medium with IL-3.
Regarding `CN1CCN(c2ccc(-c3ccc4[nH]c5nccc(Cl)c5c4c3)cc2)CC1` [Example 1, 4-Chloro-6-[4-(4-methylpiperazin-1-yl)-phenyl]-9H-pyrido[2,3-b]indole], the IC50 stood at 1400 nM.

As to `CN1CCN(c2ccc(-c3ccc4[nH]c5nccc(/C=C/c6ccccc6)c5c4c3)cc2)CC1` [Example 2, (E)-6-[4-(4-Methylpiperazin-1-yl)-phenyl]-4-(2-phenylvinyl)-9H-pyrido[2,3-b]indole], the IC50 worked out at 800 nM.

As to `C/C(=C\c1ccccc1C(F)(F)F)c1ccnc2[nH]c3ccc(-c4ccc(N5CCN(C)CC5)cc4)cc3c12` [Example 3, (E)-6-[4-(4-Methylpiperazin-1-yl)-phenyl]-4-[1-(2-(trifluoromethyl)phenyl)prop-1-en-2-yl]-9H-pyrido[2,3-b]indole], the IC50 turned out to be 2400 nM.

With `CN1CCN(c2ccc(-c3ccc4[nH]c5nccc(-c6ccc(-c7ccccc7)cc6)c5c4c3)cc2)CC1` [Example 5, 4-Biphenyl-4-yl-6-[4-(4-methylpiperazin-1-yl)-phenyl]-9H-pyrido[2,3-b]indole], the concentration for half-maximal inhibition (IC50) is greater than 25000 nM.

On to `CN1CCN(c2ccc(-c3ccc4[nH]c5nccc(/C=C/c6cccc(F)c6)c5c4c3)cc2)CC1` [Example 6, (E)-4-[2-(3-Fluorophenyl)vinyl]-6-[4-(4-methylpiperazin-1-yl)-phenyl]-9H-pyrido[2,3-b]indole], for which the IC50 turned out to be 9500 nM.

For `COc1ccc(/C=C/c2ccnc3[nH]c4ccc(-c5ccc(N6CCN(C)CC6)cc5)cc4c23)cc1` [Example 7, (E)-4-[2-(4-Methoxyphenyl)vinyl]-6-[4-(4-methylpiperazin-1-yl)-phenyl]-9H-pyrido[2,3-b]indole], the IC50 was found to be 4100 nM.

Consider `CN1CCN(c2ccc(-c3ccc4[nH]c5nccc(-c6ccc(OCc7ccccc7)cc6)c5c4c3)cc2)CC1` [Example 8, 4-(4-Benzyloxyphenyl)-6-[4-(4-methylpiperazin-1-yl)-phenyl]-9H-pyrido[2,3-b]indole], for which the IC50 amounted to 5000 nM.

Consider `CN1CCN(c2ccc(-c3ccc4[nH]c5nccc(-c6ccc(COc7cccc(C(F)(F)F)c7)cc6)c5c4c3)cc2)CC1` [Example 9, 6-[4-(4-Methylpiperazin-1-yl)-phenyl]-4-[4-(3-trifluoromethyl-phenoxymethyl)-phenyl]-9H-pyrido[2,3-b]indole], for which the IC50 is 25000 nM.

`COc1ccccc1/C=C/c1ccnc2[nH]c3ccc(-c4ccc(N5CCN(C)CC5)cc4)cc3c12` [Example 10, (E)-4-(2-(2-Methoxyphenyl)vinyl)-6-(4-(4-methylpiperazin-1-yl)phenyl)-9H-pyrido[2,3-b]indole]: the IC50 was 2100 nM.

In the case of `CN1CCN(c2ccc(-c3ccc4[nH]c5nccc(/C=C/c6ccccc6C(F)(F)F)c5c4c3)cc2)CC1` [Example 11, (E)-6-(4-(4-Methylpiperazin-1-yl)phenyl)-4-(2-(2-(trifluoromethyl)phenyl)vinyl)-9H-pyrido[2,3-b]indole], the IC50 came to 1700 nM.

For `Cc1cc(OCc2ccc(-c3ccnc4[nH]c5ccc(-c6ccc(N7CCN(C)CC7)cc6)cc5c34)cc2)ccc1Cl` [Example 12, 4-[4-(4-Chloro-3-methyl-phenoxymethyl)-phenyl]-6-[4-(4-methylpiperazin-1-yl)-phenyl]-9H-pyrido[2,3-b]indole], the IC50 was greater than 50000 nM.

Consider `CN1CCN(c2ccc(-c3ccc4[nH]c5nccc(/C=C/c6ccc(F)cc6)c5c4c3)cc2)CC1` [Example 13, (E)-4-(2-(4-Fluorophenyl)vinyl)-6-(4-(4-methylpiperazin-1-yl)phenyl)-9H-pyrido[2,3-b]indole], for which the half-maximal inhibitory concentration (IC50) is 7600 nM.

As to `CN1CCN(c2ccc(-c3ccc4[nH]c5nccc(/C=C/c6ccc(C(F)(F)F)cc6)c5c4c3)cc2)CC1` [Example 14, (E)-6-(4-(4-Methylpiperazin-1-yl)phenyl)-4-(2-(4-(trifluoromethyl)phenyl)vinyl)-9H-pyrido[2,3-b]indole], the half-maximal inhibitory concentration (IC50) is greater than 25000 nM.

For `CN1CCN(c2ccc(-c3ccc4[nH]c5nccc(-c6ccc(-c7ccccc7)cc6F)c5c4c3)cc2)CC1` [Example 15, 4-(3-Fluoro-biphenyl-4-yl)-6-[4-(4-methylpiperazin-1-yl)-phenyl]-9H-pyrido[2,3-b]indole], the half-maximal inhibitory concentration (IC50) was 6300 nM.

`CN1CCN(c2ccc(-c3ccc4[nH]c5nccc(-c6cccc(-c7ccccc7)c6)c5c4c3)cc2)CC1` [Example 17, 4-Biphenyl-3-yl-6-[4-(4-methylpiperazin-1-yl)-phenyl]-9H-pyrido[2,3-b]indole]: the IC50 came out at 2700 nM.

Turning to `CN1CCN(c2ccc(-c3ccc4[nH]c5nccc(/C=C/c6ccccc6F)c5c4c3)cc2)CC1` [Example 18, (E)-4-(2-(2-Fluorophenyl)vinyl)-6-(4-(4-methylpiperazin-1-yl)phenyl)-9H-pyrido[2,3-b]indole], the IC50 turned out to be 5100 nM.

On to `CN1CCN(c2ccc(-c3ccc4[nH]c5nccc(/C=C/c6ccccc6Cl)c5c4c3)cc2)CC1` [Example 19, (E)-4-(2-(2-Chlorophenyl)vinyl)-6-(4-(4-methylpiperazin-1-yl)phenyl)-9H-pyrido[2,3-b]indole], for which the IC50 stood at 2000 nM.

As for `CN1CCC(N2CCN(c3ccc(-c4ccc5[nH]c6nccc(-c7ccc(Cc8ccccc8)cc7)c6c5c4)cc3)CC2)CC1` [Example 21, 4-(4-Benzylphenyl)-6-(4-(4-(1-methylpiperidin-4-yl)piperazin-1-yl)phenyl)-9H-pyrido[2,3-b]indole], the IC50 came out at 3700 nM.

Regarding `CN1CCC(N2CCN(c3ccc(-c4ccc5[nH]c6nccc(/C=C/c7ccccc7C(F)(F)F)c6c5c4)cc3)CC2)CC1` [Example 22, (E)-6-(4-(4-(1-Methylpiperidin-4-yl)piperazin-1-yl)phenyl)-4-(2-(2-(trifluoromethyl)phenyl)vinyl)-9H-pyrido[2,3-b]indole], the IC50 was determined as 3900 nM.

Turning to `CN1CCN(c2ccc(-c3ccc4[nH]c5nccc(-c6ccc(C(=O)c7ccccc7)cc6)c5c4c3)cc2)CC1` [Example 23, (4-{6-[4-(4-Methylpiperazin-1-yl)-phenyl]-9H-pyrido[2,3-b]indol-4-yl}-phenyl)-phenyl-methanone], the IC50 was 2300 nM.

In the case of `CN1CCN(c2ccc(-c3ccc4[nH]c5nccc(-c6ccc(-c7cccc8ccccc78)cc6)c5c4c3)cc2)CC1` [Example 24, 6-[4-(4-Methylpiperazin-1-yl)-phenyl]-4-(4-naphthalen-1-yl-phenyl)-9H-pyrido[2,3-b]indole], the IC50 came out at 18000 nM.

Take `CN1CCN(c2ccc(-c3ccc4[nH]c5nccc(/C(=C/c6ccccc6)c6ccccc6)c5c4c3)cc2)CC1` [Example 25, (E)-4-(1,2-Diphenylvinyl)-6-[4-(4-methylpiperazin-1-yl)-phenyl]-9H-pyrido[2,3-b]indole]: the IC50 is 7500 nM.

In the case of `COc1ccc(Cc2ccc(-c3ccnc4[nH]c5ccc(-c6ccc(N7CCN(C)CC7)cc6)cc5c34)cc2)c(OC)c1` [Example 26, 4-[4-(2,4-Dimethoxybenzyl)phenyl]-6-[4-(4-methylpiperazin-1-yl)-phenyl]-9H-pyrido[2,3-b]indole], the IC50 came out at 630 nM.

As to `COc1ccccc1/C=C(\C)c1ccnc2[nH]c3ccc(-c4ccc(N5CCN(C)CC5)cc4)cc3c12` [Example 27, (E)-4-[1-(2-Methoxyphenyl)-prop-1-en-2-yl]-6-[4-(4-methylpiperazin-1-yl)-phenyl]-9H-pyrido[2,3-b]indole], the concentration for half-maximal inhibition (IC50) was found to be 2400 nM.

Consider `C/C(=C\c1ccccc1)c1ccnc2[nH]c3ccc(-c4ccc(N5CCN(C)CC5)cc4)cc3c12` [Example 28, (E)-6-(4-(4-methylpiperazin-1-yl)phenyl)-4-(1-phenylprop-1-en-2-yl)-9H-pyrido[2,3-b]indole], for which the IC50 is 800 nM.

Regarding `CN1CCN(c2ccc(-c3ccc4[nH]c5nccc(/C=C/c6ccccc6NS(C)(=O)=O)c5c4c3)cc2)CC1` [Example 29, N-[(E)-2-(2-{6-[4-(4-Methylpiperazin-1-yl)-phenyl]-9H-pyrido[2,3-b]indol-4-yl}-vinyl)-phenyl]-methanesulfonamide], the IC50 came to 680 nM.

With `CC/C=C(\c1ccccc1)c1ccnc2[nH]c3ccc(-c4ccc(N5CCN(C)CC5)cc4)cc3c12` [Example 30, (E)-6-[4-(4-Methylpiperazin-1-yl)-phenyl]-4-(1-phenyl-but-1-enyl)-9H-pyrido[2,3-b]indole], the 50% inhibitory concentration (IC50) came to 220 nM.

Regarding `CC(C)[Si](C=Cc1ccnc2[nH]c3ccc(-c4ccc(N5CCN(C)CC5)cc4)cc3c12)(C(C)C)C(C)C` [Example 32, (E) and (Z)-6-(4-(4-methylpiperazin-1-yl)phenyl)-4-(2-(triisopropylsilyl)vinyl)-9H-pyrido[2,3-b]indole], the 50% inhibitory concentration (IC50) came out at 6900 nM.

In the case of `CN1CCN(c2ccc(-c3ccc4[nH]c5nccc(-c6ccc(C(O)c7ccccc7)cc6)c5c4c3)cc2)CC1` (stereo not drawn) [Example 33, (4-{6-[4-(4-Methylpiperazin-1-yl)-phenyl]-9H-pyrido[2,3-b]indol-4-yl}-phenyl)-phenyl-methanol], the IC50 came to 1000 nM.

Consider `CN1CCN(c2ccc(-c3ccc4[nH]c5nccc(Nc6ccccc6[N+](=O)[O-])c5c4c3)cc2)CC1` [Example 34, {6-[4-(4-Methylpiperazin-1-yl)-phenyl]-9H-pyrido[2,3-b]indol-4-yl}-(2-nitro-phenyl)-amine], for which the IC50 came to 860 nM.

In the case of `CN1CCN(c2ccc(-c3ccc4[nH]c5nccc(Nc6cccc([N+](=O)[O-])c6)c5c4c3)cc2)CC1` [Example 35, 6-(4-(4-Methylpiperazin-1-yl)phenyl)-N-(3-nitrophenyl)-9H-pyrido[2,3-b]indol-4-amine], the IC50 was 480 nM.

For the compound `CN1CCC(N2CCN(c3ccc(-c4ccc5[nH]c6nccc(Nc7ccccc7[N+](=O)[O-])c6c5c4)cc3)CC2)CC1` [Example 36, 6-(4-(4-(1-Methylpiperidin-4-yl)piperazin-1-yl)phenyl)-N-(2-nitrophenyl)-9H-pyrido[2,3-b]indol-4-amine], the IC50 worked out at 7100 nM.

Broadly, the IC50 is the midpoint of a concentration-inhibition curve.

These data come from patent US9428500B2, “Alpha-carbolines for the treatment of cancer” (UNIVERSITA' DEGLI STUDI DI MILANO—BICOCCA, priority 2012, dated 2016).
